Tests used:
[1] = system: human blood platelet aggregation; test: Inhibitory effect on human blood platelet aggregation (ADP-induced, platelet-rich plasma); assay type: cell-based; conditions: human PRP (5×10^5 platelets/mm^3), compound added 1 minute prior to ADP (4 μm), read-out: IC50, inhibition of human blood platelet aggregation
Protocol: ii) Inhibitory effect on human blood platelet aggregation
Platelet-rich plasma (PRP) was prepared from human blood (5×10^5 platelets/mm^3) and a test compound was added to PRP 1 minute prior to the addition of ADP (4 μm). The aggregation was monitored using a platelet aggregometer (NBS HEMA TRACER 601, Niko Bioscience, Japan).

[2] = molecular target: T1, PGI2 receptor in the human blood platelet membrane fraction (Homo sapiens, UniProt P43119); test: Inhibitory activity on binding of [^3 H]-iloprost to PGI2 receptor in the human blood platelet membrane fraction; conditions: 10 nM [^3 H]-iloprost, human blood platelet membrane fraction (0.3 mg protein), pH 7.4, 24° C., 30 min; read-out: IC50, inhibition of [^3 H]-iloprost binding to PGI2 receptor
T1 construct: human blood platelet membrane fraction (0.3 mg protein) was added; from tissue; host or cells: human blood platelets (membrane fraction)
Protocol: i) Inhibitory activity on binding of [^3 H]-iloprost to PGI2 receptor in the human blood platelet membrane fraction
50 mM Tris-HCl buffer (pH 7.4) containing 15 mM MgCl2, 5 mM EDTA and 10 nM [^3 H]-iloprost were used as reaction medium. To 0.2 ml of the reaction medium, human blood platelet membrane fraction (0.3 mg protein) was added with or without a test compound. The mixture was incubated at 24° C. for 30 min. After incubation, 4 ml of ice-cold 10 mM Tris-HCl buffer (pH 7.4) was added to the reaction mixture, the mixture was filtered through Whatman GF/B glass fiber filter and washed 4 times with 4 ml of ice-cold 10 mM Tri-HCl buffer (pH 7.4) to separate bound and free [^3 H]-iloprost. After washing, the filter was dried and radioactivity was counted. Non-specific binding was obtained by performing parallel binding experiments in the presence of 10 μM non-labelled iloprost. Specific binding was calculated by subtracting the non-specific binding from the total binding.
The inhibitory effect of a test compound was calculated from the following equation.
The percentage of inhibition (%)=100-(B1 /B0 ×100)
B1 :specific [^3 H]-iloprost binding in the presence of a test compound
B0 :specific [^3 H]-iloprost binding in the absence of a test compound

T1 sequence (P43119 whole entry): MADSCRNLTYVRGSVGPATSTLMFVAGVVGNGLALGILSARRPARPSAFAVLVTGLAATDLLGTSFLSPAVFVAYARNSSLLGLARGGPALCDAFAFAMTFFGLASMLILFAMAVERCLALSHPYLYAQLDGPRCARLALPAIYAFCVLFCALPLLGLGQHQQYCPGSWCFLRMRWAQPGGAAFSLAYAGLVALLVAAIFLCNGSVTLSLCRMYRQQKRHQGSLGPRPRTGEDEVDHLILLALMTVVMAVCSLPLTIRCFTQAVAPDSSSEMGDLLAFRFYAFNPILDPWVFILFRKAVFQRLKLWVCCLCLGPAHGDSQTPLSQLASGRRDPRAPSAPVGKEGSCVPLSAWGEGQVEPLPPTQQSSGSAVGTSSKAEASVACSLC

SMILES	IC50 [1] [nM]	IC50 [2] [nM]
O=C(O)COc1cccc(/C=C/Cn2cc(C(c3ccccc3)c3ccccc3)cn2)c1 [17(i), 3-[3-(4-Diphenylmethylpyrazol-1-yl)-1-propenyl]phenoxyacetic acid]	–	220
O=C(O)COc1cccc(CCCC=NOC(c2ccccc2)c2ccccc2)c1 [Example 2, 3-(4-Diphenylmethyloxyiminobutyl)phenoxyacetic acid]	–	4800
O=C(O)COc1cccc(OCCn2cc(C(c3ccccc3)c3ccccc3)cn2)c1 [17(cc), 3-[2-(4-Diphenylmethylpyrazol-1-yl)ethyloxy]phenoxyacetic acid]	410	260
O=C(O)COc1cccc(CCCON=C(c2ccccc2)c2cccnc2)c1 [17(x), 3-[3-[1-Phenyl-1-(3-pyridyl)methylideneaminooxy]propyl]phenoxyacetic acid]	–	5000
O=C(O)COc1cccc(CCCC(=O)NC(c2ccccc2)c2ccccc2)c1 [8(n), 3-(3-Diphenylmethylaminocarbonylpropyl)phenoxyacetic acid]	3100	2000
O=C(O)COc1cccc(CCCC(=O)N(Cc2ccccc2)Cc2ccccc2)c1 [8(l), 3-[3-(N,N-Dibenzylaminocarbonyl)propyl]phenoxyacetic acid]	–	1500
Cc1c(/C=C/Cn2cc(C(c3ccccc3)c3ccccc3)cn2)cccc1OCC(=O)O [17(s), 2-Methyl-3-[3-(4-diphenylmethylpyrazol-1-yl)-1-propenyl]phenoxyaceticacid]	3200	780
O=C(O)COc1ccccc1CCCCn1cc(C(c2ccccc2)c2cccnc2)cn1 (stereo not drawn) [17(n)]	–	2000
O=C(O)COc1cccc(CCCn2cc(C(c3ccccc3)c3ccccc3)nn2)c1 [17(c), 3-[3-(4-Diphenylmethyl-1,2,3-triazol-1-yl)propyl]phenoxyacetic acid]	470	270
O=C(O)COc1cccc(CCCn2ncc(C(c3ccccc3)c3ccccc3)n2)c1 [17(b), 3-[3-(4-Diphenylmethyl-1,2,3-triazol-2-yl)propyl]phenoxyacetic acid]	240	360
O=C(O)COc1cccc(CCCC(=O)NN(c2ccccc2)c2ccccc2)c1 [8(o), 3-[3-[(N,N-Diphenylamino)aminocarbonyl]propyl]phenoxyacetic acid]	970	460

Second part, the compound after the results:

IC50 [1] [nM]	IC50 [2] [nM]	SMILES
420	150	O=C(O)COc1cccc(CCCn2cc(C(c3ccccc3)c3ccccc3)cn2)c1 [Example 17, 3-[3-(4-diphenylmethylpyrazol-1-yl)propyl]phenoxyacetic acid]
3700	1600	CCCC(CCCc1cccc(OCC(=O)O)c1)=NOC(c1ccccc1)c1ccccc1 [Example 4, 3-(4-Diphenylmethyloxyiminoheptyl)phenoxyacetic acid]
–	4400	O=C(O)COc1cccc(CCCc2nc(C(c3ccccc3)c3ccccc3)no2)c1 [Example 21, 3-[3-(3-diphenylmethyl-1,2,4-oxadiazol-5-yl)propyl]phenoxyacetic acid]
370	1500	O=C(O)COc1cccc(CCCc2noc(C(c3ccccc3)c3ccccc3)n2)c1 [Example 23, 3-[3-(5-diphenylmethyl-1,2,4-oxadiazol-3-yl)propyl]phenoxyacetic acid]
160	120	O=C(O)COc1cccc(CCCc2cc(C(c3ccccc3)c3ccccc3)on2)c1 [Example 19, 3-[3-(5-diphenylmethylisoxazol-3-yl)propyl]phenoxyacetic acid]
5000	1300	O=C(O)COc1cccc(CCCCOC(c2ccccc2)c2ccccc2)c1 [Example 12, 3-(4-Diphenylmethyloxybutyl)phenoxyacetic acid]
–	3000	CCCC(CCCc1cccc(OCC(=O)O)c1)NOC(c1ccccc1)c1ccccc1 (stereo not drawn) [Example 6, 3-(4-Diphenylmethyloxyaminoheptyl)phenoxyacetic acid]
–	4000	COC(=O)COc1cccc(CCCC(=O)OC(c2ccccc2)c2ccccc2)c1 [Example 15, Methyl 3-(3-diphenylmethyloxycarbonylpropyl)phenoxyacetate]
